Where two headings read alike, the source gives them in different places.
How the values were obtained:
BM-3(wt) = settings: 2% (v/v) DMSO, 200 μM substrate, 500 nM enzyme; cited from earlier work
BM-3(A328V) = settings: 2% (v/v) DMSO, 200 μM substrate, 500 nM enzyme; cited from earlier work
[1] = target: BM-3(wt), wild-type P450BM-3 (Priestia megaterium, UniProt P14779); assay: Steady-state turnover, products quantified by GC-MS, wild-type holoenzyme; format: biochemical, Bacillus megaterium; settings: 50 nM enzyme, 250 μM substrate, 50 mM KPi pH 7.4, 25°C
[2] = target: BM-3(A328V), P450BM-3(A328V) (Priestia megaterium, UniProt P14779, A329V); assay: Steady-state turnover, products quantified by GC-MS, A328V holoenzyme; format: biochemical, Bacillus megaterium; settings: 50 nM enzyme, 250 μM substrate; for BM-3(A328V) turnover rate: 50 mM KPi pH 7.4, 25°C, GC-MS
[3] = target: BMP(A328V), heme domain of P450BM-3 A328V mutant (Priestia megaterium, UniProt P14779, A329V); assay: Substrate dissociation constants by UV-vis spectral titration, A328V heme domain; format: binding, Bacillus megaterium; settings: for Fold Enhancement of substrate affinity, A328V versus wild type: ratio of BMP(wt) KD to BMP(A328V) KD
[4] = target: BMP(wt), heme domain of P450BM-3 (Priestia megaterium, UniProt P14779); format: binding, Bacillus megaterium
P450BM-3(A328V) = P450BM-3(A328V) (Priestia megaterium, UniProt P14779, A329V); assay: Regiospecificity of hydroxylation, product distribution by GC/MS, A328V; format: biochemical, Bacillus megaterium; settings: A328V mutant, 500 μM substrate, 50 nM enzyme, 250 μM NADPH, run to completion
P450BM-3 wild-type = P450BM-3 wild-type (Priestia megaterium, UniProt P14779); assay: Regiospecificity of hydroxylation, product distribution by GC/MS, wild type; format: biochemical, Bacillus megaterium; settings: wild-type enzyme, 500 μM substrate, 50 nM enzyme, 250 μM NADPH, run to completion
[5] = read-out: BMP(A328V) Dissociation Constant, 50 mM KPi pH 7.4, room temperature, 1 μM P450, UV-vis titration

Sequence of BM-3(wt), wild-type P450BM-3 (P14779 whole entry): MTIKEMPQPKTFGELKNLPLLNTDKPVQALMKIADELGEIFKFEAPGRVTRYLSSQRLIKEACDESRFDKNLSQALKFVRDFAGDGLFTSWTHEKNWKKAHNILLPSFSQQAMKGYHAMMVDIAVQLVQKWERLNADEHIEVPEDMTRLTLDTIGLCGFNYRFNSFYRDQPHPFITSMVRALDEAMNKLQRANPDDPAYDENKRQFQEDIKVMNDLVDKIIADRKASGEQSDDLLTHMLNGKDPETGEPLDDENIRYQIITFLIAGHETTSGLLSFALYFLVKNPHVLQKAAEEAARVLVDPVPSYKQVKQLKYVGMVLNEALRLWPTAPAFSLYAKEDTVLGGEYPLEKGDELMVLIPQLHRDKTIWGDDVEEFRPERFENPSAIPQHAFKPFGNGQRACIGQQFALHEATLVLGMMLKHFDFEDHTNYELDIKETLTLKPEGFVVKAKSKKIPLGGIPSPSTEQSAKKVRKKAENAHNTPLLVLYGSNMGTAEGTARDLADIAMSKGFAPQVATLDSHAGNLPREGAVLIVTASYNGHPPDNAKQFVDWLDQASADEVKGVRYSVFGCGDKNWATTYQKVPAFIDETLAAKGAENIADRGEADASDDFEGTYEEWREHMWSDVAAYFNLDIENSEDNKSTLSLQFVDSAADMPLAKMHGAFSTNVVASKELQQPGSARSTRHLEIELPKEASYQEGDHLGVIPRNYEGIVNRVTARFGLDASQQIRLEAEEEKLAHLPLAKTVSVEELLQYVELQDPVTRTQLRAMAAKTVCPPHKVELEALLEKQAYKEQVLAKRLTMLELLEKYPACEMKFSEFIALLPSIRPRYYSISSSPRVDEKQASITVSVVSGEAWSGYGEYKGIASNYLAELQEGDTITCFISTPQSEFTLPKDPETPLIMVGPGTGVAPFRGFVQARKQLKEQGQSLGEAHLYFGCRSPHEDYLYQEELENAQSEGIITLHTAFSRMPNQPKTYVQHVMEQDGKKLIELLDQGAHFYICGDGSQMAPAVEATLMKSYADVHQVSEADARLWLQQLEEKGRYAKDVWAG
Sequence of BM-3(A328V), P450BM-3(A328V) (P14779 whole entry A329V, the tested form may be a part): as the sequence (P14779 whole entry) above, with A329V counted along it
Sequence of BMP(A328V), heme domain of P450BM-3 A328V mutant (P14779 2-472 A329V): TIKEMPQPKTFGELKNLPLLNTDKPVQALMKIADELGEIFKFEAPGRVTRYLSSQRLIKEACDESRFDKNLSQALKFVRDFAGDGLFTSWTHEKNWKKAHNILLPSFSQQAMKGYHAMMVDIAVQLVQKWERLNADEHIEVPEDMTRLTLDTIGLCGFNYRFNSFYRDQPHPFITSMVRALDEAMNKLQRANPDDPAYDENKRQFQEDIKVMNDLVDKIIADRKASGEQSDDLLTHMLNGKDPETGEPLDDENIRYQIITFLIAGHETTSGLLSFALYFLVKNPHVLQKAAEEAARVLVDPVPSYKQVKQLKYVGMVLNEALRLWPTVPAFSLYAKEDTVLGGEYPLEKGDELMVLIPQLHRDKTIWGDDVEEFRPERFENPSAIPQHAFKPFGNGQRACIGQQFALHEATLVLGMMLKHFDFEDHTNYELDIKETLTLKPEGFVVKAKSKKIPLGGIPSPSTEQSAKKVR
Sequence of BMP(wt), heme domain of P450BM-3 (P14779 2-472): as the sequence (P14779 2-472 A329V) above, with V328A counted along it
Sequence of P450BM-3 wild-type (P14779 whole entry): as the sequence (P14779 whole entry) above
Sequence of P450BM-3(A328V) (P14779 whole entry A329V): as the sequence (P14779 whole entry) above, with A329V counted along it

SMILES	BM-3(wt) turnover rate (BM-3(wt))	BM-3(A328V) turnover rate (BM-3(A328V))	BM-3(wt) turnover rate [1]	Fold Enhancement of turnover (rate A328V divided by rate wild type) [2]	BM-3(A328V) turnover rate [2]	Fold Enhancement of substrate affinity, A328V versus wild type [3]	Kd [3, 5]	Kd [3]	Kd [4]	ω-1 hydroxy product, percent of total oxidation products (P450BM-3(A328V))	ω-2 hydroxy product, percent of total oxidation products (P450BM-3 wild-type)
CC(=O)CC/C=C(/C)CCC=C(C)C [Nerylacetone]	155 ± 7 μmol/min/μmol	338 ± 10 μmol/min/μmol									
CCCCCCCCCCCCCCCC(=O)N[C@@H](CCC(N)=O)C(=O)O [PalmGln, N-palmitoyl-L-glutamine]			610 ± 25 μmol/min/μmol	7.4	4500 ± 500 μmol/min/μmol	2.7	0.074 ± 0.005 µM				
CCCCCCCCCCCCCCCC(=O)N[C@@H](CCC(=O)O)C(=O)O [PalmGlu, N-palmitoyl-L-glutamate]			485 ± 15 μmol/min/μmol	8.2	3960 ± 280 μmol/min/μmol	9.0	0.41 ± 0.06 µM				
CCCCCCCCCCCCCCCC(=O)NCC(=O)O [PalmGly, N-palmitoylglycine]			1875 ± 30 μmol/min/μmol	2.9	5500 ± 600 μmol/min/μmol	7.1	0.045 ± 0.014 µM				
CCCCCCCCCCCCCCCC(=O)N[C@@H](CC(C)C)C(=O)O [PalmLeu]			1155 ± 20 μmol/min/μmol	3.4	3900 ± 320 μmol/min/μmol		< 0.03 µM				
CCCCCCCCCCCCCCCC(=O)N[C@@H](CCSC)C(=O)O [PalmMet, N-palmitoyl-L-methionine]			1690 ± 75 μmol/min/μmol	2.6	4400 ± 145 μmol/min/μmol		< 0.03 µM				
CCCCCCCCCCCCCCCC(=O)O [Palmitate, palmitic acid]			1480 ± 35 μmol/min/μmol	2.3	3355 ± 95 μmol/min/μmol	8.1		0.16 ± 0.02 µM	1.3 ± 0.17 µM	72%	46%

— article PMC3235725 (Biochemistry, 2011)
